Values of other authors as cited in patent US6974685B2, “High production method of prenyl alcohol using saccharomyces cells” (Toyota Jidosha Kabushiki Kaisha 1, priority 2000, dated 2005).

System: erg mutant of Saccharoinyces cerevisiae
Conditions: Curr. Genet., 18, 41-46 (1990)

SMILES: CC(C)=CCCC(C)=CCCC(C)=CCO [FOH, farnesol]
- farnesol production: 1 mg/L
